Assays:
SW620 = assay: Cell death induction, trypan blue cell counting, SW620; assay type: cell-based, human; details: 1 μM, 48 hours
Description: (§1) Based on the results above, to identify the cell death-inducing ability of the compounds of Example 1 and positive control 1, which are representative materials, preparation was performed by seeding respective colorectal cancer cell lines SNU-[…], HCT8, T84, and SW620 onto 60-mm plates at 3×10^5 cells, and then incubation was performed for 24 hours. Thereafter, treatment with each of Example 1 and positive control 1 was performed at 1μM and incubation was performed for 48 hours. In addition, preparation was performed by seeding the cell line SW620 onto a 60-mm plate at 3×10^5 cells, and then incubation was performed for 24 hours. Thereafter, treatment with each of Example 1, positive control 1, positive control 2, and positive control 3 was performed at 1 μM. After 48 hours, the cells and cell suspensions were collected by treatment with trypsin, resuspended in 1× PBS and stained using a trypan blue solution (Sigma, cat# T8154). The stained cells were counted using a hemocytometer. Cell counting was repeated, and the mean and the standard deviation were calculated.

SNUC2A = assay: MTS assay, cytotoxicity on colorectal cancer cell line SNUC2A; assay type: cell-based; details: RON mutation negative, KRAS G12D, 72 hours
Description: (§2) MTS assay was performed to compare cytotoxicity of the compounds of Example 1, Example 2, Example 3, Example 4, Example 5, Example 6, and positive control 1 on a colorectal cancer cell line, and a cell death rate of the colorectal cancer cell line was analyzed to compare anticancer activity of the compounds.
(§3) The MTS assay was performed by seeding each colorectal cell line in a 96-well plate at 1,000 cells per well, and after 24 hours, performing treatment with the compounds of Examples 1 to 6 and positive control 1 at various concentrations (0.000001 μM to 10 μM) in 100 μL of 10% FBS-RPMI medium (WELGENE Inc.) per well. The cells were incubated for 72 hours. Then, 20 μL of MTS solution (Promega) was added thereto, and the cells were incubated for 2 hours. Then, the absorbance was measured at 490 nm. The IC50 values for the compounds of Examples 1 to 6 and positive control 1 were calculated using GraphPad Prism™ 5 to investigate cytotoxicity.

SNU-C2A = assay: Cell death induction, trypan blue cell counting, SNU-C2A; assay type: cell-based; details: SNUC2A with inactive RON; 1 μM; 48 hours; FIG. 1
Description: as §1, with “hours.” for “hours. In addition, preparation was performed by seeding the cell line SW620 onto a 60-mm plate at 3×10^5 cells, and then incubation was performed for 24 hours. Thereafter, treatment with each of Example 1, positive control 1, positive control 2, and positive control 3 was performed at 1 μM.”

HCT15 = assay: MTS assay, cytotoxicity on colorectal cancer cell line HCT15; assay type: cell-based; details: Homo sapiens, HCT-15, RON Δ160, KRAS G13D, 72 hours
Description: as §2, §3

DLD1 = assay: MTS assay, cytotoxicity on colorectal cancer cell line DLD1; assay type: cell-based; details: Homo sapiens, DLD-1, RON wt, KRAS G13D, 72 hours
Description: as §2, §3

[1] = test system: colorectal cancer patient-derived cell lines; assay: Cell death induction (cleaved caspase 3 staining) in colorectal cancer patient-derived cell lines; assay type: cell-based, human; details: 1 μM, FIG. 4
[2] = test system: SW620 (KRAS G12V/mRON Δ155); assay: Cell line SW620-transplanted mouse model; assay type: in vivo, BALB/c nude mice
Description: 5-Week-old female BALB/c nude mice were purchased and acclimatized for 1 week. Then, human colorectal cancer patient-derived cell line SW620 (KRAS
G12V/mRON Δ155) at 5×10^6 cells/mouse was injected subcutaneously (100 μL) into the right dorsal side of the mice. The compound of Example 1 was orally administered when the tumor reached a size of about 100 mm^3. The drug was administered once a day for 4 weeks, and tumor size and mouse body weight were measured twice a week. After completion of the drug administration, the experimental animals were euthanized, and then the tumors were extracted and weighed for comparative analysis.
A portion of the extracted tumor tissue was fixed in 10% formalin and processed into a paraffin block. Then, the block was made into sections. Staining of the slide was performed through immunochemical staining. Another portion of the extracted tumor tissue was subjected to lysis, and then Western blotting was used to identify changes in expression of respective proteins.

[3] = immunochemical staining, FIG. 7

For `CCOc1ccn(-c2ccc(F)cc2)c(=O)c1C(=O)Nc1ccc(Oc2ccnc3cc(-c4ccc(CN5CCOCC5)cn4)sc23)c(F)c1.Cl` [Example 1, 4-ethoxy-N-[3-fluoro-4-({2-[5-(morpholinomethyl)pyridine-2-yl]thieno[3,2-b]pyridine-7-yl}oxy)phenyl]-1-(4-fluorophenyl)-2-oxo-1,2-dihydropyridine-3-carboxamide hydrochloride], which cell death rate (SW620; SW620 (KRAS G12V/mRON Δ155), FIG. 2) is on record?
Its cell death rate is “high cell death rate”.

And the “cell death induction efficacy” value (SW620; SW620 with a RON mutation, FIG. 1)?
Its value is “cell death induction efficacy was exhibited regardless of mutation type”.

What about the IC50 (SNUC2A) of the same compound?
Its IC50 is 5780 nM.

And the “cell death induction efficacy” value (SNU-C2A)?
The value was “no response”.

What about the IC50 (HCT15) of the same compound?
The IC50 was 230 nM.

And the IC50 (DLD1)?
The IC50 was 240 nM.

And the “cell death induction efficacy” value ([1]; patient-derived cell line expressing a RON mutation or pTyr-wtRON)?
Its value is “exhibited cell death induction efficacy”.

And the “cell death induction efficacy” value ([1]; patient-derived cell line with inactive RON)?
The value was “did not exhibit cell death induction efficacy”.

What about the “Tumor growth inhibition (TGI, %)” value ([2]; 30 mg/kg, oral, once a day for 4 weeks) of the same compound?
The value was 79.2 ± 2.2%.

What about the “expression of cleaved caspase 3 in tumor tissue” value [2, 3] of the same compound?
The value was “induced expression”.

What about the “expression of cyclin D1 (PD marker) in tumor tissue” value [2, 3] of the same compound?
The value was “decreased expression”.

What about the “expression of pTyr-RON in tumor tissue” value [2, 3] of the same compound?
Its value is “decreased expression”.

What about the “tumor growth inhibitory efficacy” value ([2]; oral, 4 weeks, Table 5, FIG. 5, FIG. 6) of the same compound?
The value was “high tumor growth inhibitory efficacy”.

— patent US20230099204A1, “PHARMACEUTICAL COMPOSITION FOR PREVENTION OR TREATMENT OF CANCER IN WHICH KRAS MUTATION AND ACTIVATED RON ARE PRESENT” (WELLMARKER BIO CO., LTD., priority 2020, published 2023)
